The experiment concerns the target T1, HTR6 (Homo sapiens, UniProt P50406).
T1 construct: purchased Promega (in-house HiBiT-GPCR construct library, NanoBRET)
Briefly: NanoBRET screen HiBiT-HTR6 in HEK293. The format is binding. The method, then: Each tracer candidate was screened across the entire library of HiBiT-GPCR constructs using NanoBRET as the detection modality. As depicted in Figure 4A, the specificity of interactions was evaluated through decrease in BRET due to competitive displacement of a bound tracer by excess parental compound. Each tracer was analyzed for binding to each HiBiT-GPCR fusion in the absence and in the presence of competing parental compound. Briefly, HEK293 cells were transfected with HiBiT-GPCR constructs diluted into promoterless DNA to reduce expression and maximize translocation to the cell surface. Each tracer candidate was then screened at concentrations of 1 μM and 0.1 μM across cells expressing these fusions. Cells were treated for 1.5 h with tracer either alone or in the presence of 20 μM competing parental compound (i.e., control). BRET was measured upon addition of purified LgBiT and subsequent complementation with HiBiT genetically fused to a GPCR. The specificity of interactions was assessed through a decrease in BRET signal due to competitive displacement of the bound tracer. To further gauge the robustness of these interactions, the fold response over the control (i.e., BRETtracer/BRETcontrol) was calculated. We chose a 1.5-fold response, which translates to ≥7-fold signal over noise as the minimal threshold required to score an interaction as positive.
HiBiT-GPCR DNA constructs were diluted in 10 mM Tris pH 8 to a final concentration of 0.01 μg/μL, arrayed in 96-well plates and stored at −20 °C. For transfection, HEK293 cells were suspended in Opti-MEM (without phenol red) supplemented with 2% fetal bovine serum (Seradigm) and 100 units/mL penicillin–streptomycin (Gibco) at a final concentration of 220,000 cells/mL and dispensed into white 96-well plates at 90 μL/well. Subsequent transfections and screens were carried using an Agilent Bravo Automated Liquid Handling Platform. First, the 96-well HiBiT DNA arrays were diluted 25-fold in Opti-MEM (without serum or phenol red) to a final concentration of 0.0004 μg/μL and 20 μL of the diluted DNAs were transferred into new 96-well plates. Next, promoterless carrier DNA (1 μg/μL) was diluted 25-fold (0.04 μg/μL) and then dispensed into the diluted arrays at 20 μL/well. Following brief mixing, Viafect transfection reagent (Promega) diluted 16-fold into Opti-MEM was dispensed into the plates at 40 μL/well. After mixing by pipetting, plates were incubated for 10 min on the pipetting station deck. The DNA-transfection reagent complexes were then added to plates containing cells. To facilitate the screen, 10 μL of DNA-transfection reagent complexes were added in duplicates to the top 4 and bottom 4 rows, resulting in two identical 48-well arrays per plate. Plates with transfected cells were incubated for 18–20 h at 37 °C/5% CO2. A screen of each tracer across the entire library using two different concentrations requires duplicate plates of transfected cells. Depending on the number of tracers being screened, transfections can be scaled up using the same ratios. The next day, for each tracer, four 20× screening solutions in tracer dilution buffer (Promega) were prepared: two duplicates at final concentration of 20 μM and two duplicates at a final concentration of 2 μM. […] The four resulting solutions were diluted 4-fold in Opti-MEM without serum or phenol red to generate 5× solutions (5 µM and 0.5 µM tracer +/− 100 μM competing compound). To screen the library, a BioTek MultiFlo FX liquid dispenser was used to dispense 22.5 µL of tracer solution to the top 4 rows and 22.5 µL tracer + competing compound solution to the 4 bottom rows. Plates were briefly mixed on an orbital shaker and incubated for 1.5 h at room temperature. […] Plates were briefly mixed on an orbital shaker and incubated for 15 min to allow complementation.
In general terms: BRET reads energy transfer from a luciferase to a nearby fluorophore.

T1 sequence (P50406 whole entry): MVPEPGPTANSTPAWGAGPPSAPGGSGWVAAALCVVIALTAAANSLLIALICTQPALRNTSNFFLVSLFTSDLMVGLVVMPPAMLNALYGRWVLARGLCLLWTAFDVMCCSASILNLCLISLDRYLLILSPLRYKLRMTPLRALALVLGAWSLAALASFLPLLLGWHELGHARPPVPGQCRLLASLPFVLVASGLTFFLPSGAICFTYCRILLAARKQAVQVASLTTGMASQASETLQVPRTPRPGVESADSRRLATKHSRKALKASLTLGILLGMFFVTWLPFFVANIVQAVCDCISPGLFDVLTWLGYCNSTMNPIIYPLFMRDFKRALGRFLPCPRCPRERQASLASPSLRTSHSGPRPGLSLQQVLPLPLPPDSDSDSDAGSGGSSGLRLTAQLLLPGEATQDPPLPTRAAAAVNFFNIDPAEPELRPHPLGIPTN

Regarding `COc1ccc2c(n1)c(CCNC(C)=O)cn2CCNC(=O)CCc1ccc2n1[B-](F)(F)[N+]1=C(c3ccc[nH]3)C=CC1=C2` [Azamelatonin-1-NB590], the “NanoBRET Fold Response” value reads like this: (0.1μM tracer) 0.87; (1μM tracer) 0.87.

Consider `CC(C)N(CC[C@H](c1ccccc1)c1cc(CCNC(=O)c2ccc(CNC(=O)CCc3ccc4n3[B-](F)(F)[N+]3=C(c5ccc[nH]5)C=CC3=C4)cc2)ccc1O)C(C)C` [Tolterodine-BZ-NB590], for which the “NanoBRET Fold Response” value reads like this: (HTR6, tracer 0.1μM) 0.96; (HTR6, tracer 1μM) 1.05.

As for `O=C(CCc1ccc2n1[B-](F)(F)[N+]1=C(c3ccc[nH]3)C=CC1=C2)NCCOCCOCCNC(=O)OCCOCCN1CCN(C2=Nc3ccccc3Sc3ccccc32)CC1` [Quetiapine-a-2-NB590], the “NanoBRET Fold Response” value by setting is: (HTR6, tracer 0.1μM) 0.90; (HTR6, tracer 1μM) 0.98.

On to `Cc1cc2c(s1)Nc1ccccc1N=C2N1CCN(CCCNC(=O)CCOCCOCCOCCOCCNC(=O)CCc2ccc3n2[B-](F)(F)[N+]2=C(c4ccc[nH]4)C=CC2=C3)CC1` [Olanzapine-a-2-NB590], for which the “NanoBRET Fold Response” value reads like this: (HTR6, tracer 0.1μM) 1.09; (HTR6, tracer 1μM) 1.15.

For the compound `O=C(CCc1ccc2n1[B-](F)(F)[N+]1=C(c3ccc[nH]3)C=CC1=C2)NCc1ccc(C(=O)NCCOCCOCCNCC(O)COc2cccc3ccccc23)cc1` (stereo not drawn) [Propranolol-3-NB590], the “NanoBRET Fold Response” value (HTR6, 0.1μM) came out at 1.10 and the “NanoBRET Fold Response” value (HTR6, 1μM) is 1.14.

Regarding `N#CN/C(=N\CCNC(=O)c1ccc(N)cc1)NCCCOc1cccc(CN2CCCCC2)c1` [Aminopotentidine (unmodified)], the “NanoBRET Fold Response” value (HTR6, other tracers/Aminopotentidine (unmodified), 0.1μM) came out at 1.03 and the “NanoBRET Fold Response” value (HTR6, other tracers/Aminopotentidine (unmodified), 1μM) is 1.38.

With `O=C(CCc1ccc2n1[B-](F)(F)[N+]1=C(c3ccc[nH]3)C=CC1=C2)NCc1ccc(C(=O)NCCOCCC(=O)N[C@@H]2CC[C@@]3(O)[C@H]4Cc5ccc(O)c6c5[C@@]3(CCN4CC3CC3)[C@H]2O6)cc1` [Naltrexone-3-NB590], the “NanoBRET Fold Response” value runs as follows: (HTR6, tracer 0.1μM) 0.77; (HTR6, tracer 1μM) 0.95.

Regarding `CC(C)N(CC[C@H](c1ccccc1)c1cc(CCNC(=O)CCOCCOCCOCCOCCNC(=O)CCc2ccc3n2[B-](F)(F)[N+]2=C(c4ccc[nH]4)C=CC2=C3)ccc1O)C(C)C` [Tolterodine-2-NB590], the “NanoBRET Fold Response” value is, setting by setting: (HTR6, tracer 0.1μM) 0.89; (HTR6, tracer 1μM) 0.96.

Regarding `Cc1nc2n(c(=O)c1CCN1CCC(c3noc4cc(F)ccc34)CC1)CCCC2OC(=O)NCCOCCOCCOCCOCCNC(=O)CCc1ccc2n1[B-](F)(F)[N+]1=C(c3ccc[nH]3)C=CC1=C2` (stereo not drawn) [Risperidone-2-NB590], the “NanoBRET Fold Response” value runs as follows: (HTR6, tracer 0.1μM) 1.00; (HTR6, tracer 1μM) 1.34.

`O=C(CCOCCOCCOCCOCCNC(=O)CCc1ccc2n1[B-](F)(F)[N+]1=C(c3ccc[nH]3)C=CC1=C2)NCCCN1CCN(C2=Nc3cc(Cl)ccc3Nc3ccccc32)CC1` [Clozapine-a-2-NB590]: the “NanoBRET Fold Response” value runs as follows: (HTR6, 0.1μM tracer) 1.49; (HTR6, 1μM tracer) 2.05.

As for `COc1ccc2[nH]c(-c3ccc(CNC(=O)CCOCCOCCOCCOCCNC(=O)CCc4ccc5n4[B-](F)(F)[N+]4=C(c6ccc[nH]6)C=CC4=C5)cc3)c(CCNC(C)=O)c2n1` [AzomelatoninICO9-2-NB590], the “NanoBRET Fold Response” value is, setting by setting: (0.1μM tracer) 0.97; (1μM tracer) 0.95.

On to `COc1ccccc1N1CCN(CCCCN2C(=O)c3ccc(CNC(=O)CCOCCNC(=O)c4ccc(CNC(=O)CCc5ccc6n5[B-](F)(F)[N+]5=C(c7ccc[nH]7)C=CC5=C6)cc4)cc3C2=O)CC1` [NAN-190-3-NB590], for which the “NanoBRET Fold Response” value reads like this: (HTR6, tracer 0.1μM) 0.94; (HTR6, tracer 1μM) 1.19.

On to `N#CN=C(NCCCOc1cccc(CN2CCCCC2)c1)NCCNC(=O)CCOCCOCCOCCOCCNC(=O)CCc1ccc2n1[B-](F)(F)[N+]1=C(c3ccc[nH]3)C=CC1=C2` [Aminopotentidine-2-NB590], for which the “NanoBRET Fold Response” value was determined as 0.99 (HTR6, tracer 0.1μM) and 1.03 (HTR6, tracer 1μM).

Turning to `CN(C)CCC=C1c2ccccc2CCc2ccc(C(=O)NCCNC(=O)CCOCCOCCOCCOCCNC(=O)CCc3ccc4n3[B-](F)(F)[N+]3=C(c5ccc[nH]5)C=CC3=C4)cc21` [Amitriptyline-b-2-NB590], the “NanoBRET Fold Response” value reads like this: (tracer at 0.1μM, listed as amitriptyline-b-2-NB590) 1.11; (tracer at 1μM, listed as amitriptyline-b-2-NB590) 1.11.

On to `COc1ccccc1N1CCN(CCCCN2C(=O)c3ccc(CNC(=O)CCOCCOCCOCCOCCNC(=O)CCc4ccc5n4[B-](F)(F)[N+]4=C(c6ccc[nH]6)C=CC4=C5)cc3C2=O)CC1` [NAN-190-2-NB590], for which the “NanoBRET Fold Response” value (HTR6, tracer 0.1μM) turned out to be 0.99 and the “NanoBRET Fold Response” value (HTR6, tracer 1μM) amounted to 1.04.

Take `O=C(CCOCCOCCOCCOCCNC(=O)CCc1ccc2n1[B-](F)(F)[N+]1=C(c3ccc[nH]3)C=CC1=C2)NCCCN1CCN(C2=Nc3ccccc3Oc3ccc(Cl)cc32)CC1` [Loxapine-a-2-NB590]: the “NanoBRET Fold Response” value runs as follows: (HTR6, tracer 0.1μM) 1.04; (HTR6, tracer 1μM) 1.21.

For the compound `CN(CCC=C1c2ccccc2CCc2ccccc21)C(=O)CCOCCOCCOCCOCCNC(=O)CCc1ccc2n1[B-](F)(F)[N+]1=C(c3ccc[nH]3)C=CC1=C2` [Amitriptyline-e-2-NB590], the “NanoBRET Fold Response” value (tracer at 1μM) was determined as 1.01.

With `CCCn1c(=O)c2[nH]c(-c3ccc(OCC(=O)NCCNC(=O)CCOCCNC(=O)c4ccc(CNC(=O)CCc5ccc6n5[B-](F)(F)[N+]5=C(c7ccc[nH]7)C=CC5=C6)cc4)cc3)nc2n(CCC)c1=O` [XAC-3-NB590], the “NanoBRET Fold Response” value (HTR6, tracer 0.1μM) turned out to be 0.97 and the “NanoBRET Fold Response” value (HTR6, tracer 1μM) is recorded as 0.93.

Regarding `CN(C)CCC=C1c2ccccc2CCc2ccc(C(=O)NCCNC(=O)CCOCCOCCOCCOCCNC(=O)CCc3ccc4n3[B-](F)(F)[N+]3=C(c5ccc[nH]5)C=CC3=C4)cc21` [Amitriptyline-a-2-NB590], the “NanoBRET Fold Response” value by setting is: (tracer at 0.1μM) 0.98; (tracer at 1μM) 0.97.

`CCOC(=O)c1cc(C#N)c(N2CCC(C(=O)NS(=O)(=O)Cc3ccccc3/C=C/C(=O)NCCNC(=O)CCc3ccc4n3[B-](F)(F)[N+]3=C(c5ccc[nH]5)C=CC3=C4)CC2)nc1C` [AZD1283-1-NB590]: the “NanoBRET Fold Response” value by setting is: (HTR6, 0.1μM) 1.05; (HTR6, 1μM) 1.07.

The record behind these values is publication PMC8151276, “An Integrated Approach toward NanoBRET Tracers for Analysis of GPCR Ligand Engagement” (Molecules, 2021).
